Where a name gives a salt, the structure may show the parent alone.
Key:
Solubility in water = assay type: physicochemical
[1] = test system: Sprague-Dawley albine rats; assay: Acute toxicity by oral route in the rat; assay type: in vivo; conditions: evaluated ten days after administration
Experimental: (§1) Sprague-Dawley albine rats having an average weight of 120 + 5 g and of both sexes were used.
(§2) For each compound 40 rats were treated. The test compound as a suspension in 5% arabic gum was administered through a gastric probe.
(§3) The results were evaluated ten days after the administration.

[2] = Acute toxicity by oral route in the rat; assay type: in vivo; conditions: rat, in vivo, rat, evaluated ten days after administration
Experimental: as §1, §2, §3

female rats = assay: Test for possible teratogenic action; assay type: in vivo, rat; conditions: 50 mg/Kg from the beginning up to the 19-20 day of gestation
Experimental: The subject compound was also tested with respect to a possible teratogenic action, by administering to female rats a dose of 50 mg/Kg from the beginning up to the 19-20 day of gestation.

[3] = test system: rats of male sex, of the Sprague-Dawley strain; assay: Anti-inflammatory activity in the kaolin test; assay type: in vivo; conditions: rat, 10% suspension of kaolin, diameter of the articulation
Experimental: (§4) The tests used for the evaluation of the anti-inflammatory activity were respectively that of the kaolin and that of the egg white.
a) Anti-inflammatory activity in the kaolin test. For each compound 16 rats of male sex, of the Sprague-Dawley strain and of 200-250 g of body weight, were used. The rats were divided into four groups each comprising four rats. All the animals were injected with a 10% suspension of kaolin. The first group was used as the control, whereas the other three groups were administered with doses respectively of 50,75 and 100 mg/Kg. The measurements of the diameters of the articulation were effected one hour after the kaolin injection and then every 24 hours.
The inoculation of kaolin caused an increase of the tibio-tarsal articulation which has been partially limited by the treatment with the test compound.

[4] = test system: male rats, of the Sprague-Dawley strain; assay: Anti-inflammatory activity in the egg white test; assay type: in vivo, rat; conditions: two oral doses of 100 mg/Kg with a 30 minute interval, 0,1 ml of egg white in the rear paw, measured 3 and 4 hours later
Experimental: as §4
For each compound 16 male rats, of the Sprague-Dawley strain and weighing 300 g, were used. The animals were divided- in four groups each comprising four rats. The first group served as a control, whereas the other three groups were orally administered, with a 30 minute interval, with two doses of 50,75 and 100 mg/Kg of the test compound.
The last administration was immediately followed by the inoculation of 0,1 ml of egg white in the rear paw of all the animals, including the controls. The measurements of the diameters of the articulations were effected 3 and 4 hours later.

[5] = TREATMENT 900 (900 mg/Kg elsewhere in the source), oral by gastric probe

In the case of `CC(C)Cc1ccc(C(C)C(=O)SC(C)C(=O)NCC(=O)O)cc1` (stereo not shown) [calcium salt], the solubility in water (Solubility in water) was “insoluble”.

For `CC(C)Cc1ccc(C(C)C(=O)SC(C)C(=O)NCC(=O)O)cc1` (stereo not shown) [magnesium salt], the solubility in water (Solubility in water) was “insoluble”.

With `CC(C)Cc1ccc(C(C)C(=O)SC(C)C(=O)NCC(=O)O)cc1` (stereo not shown) [potassium salt] the solubility in water (Solubility in water) was “highly soluble in water”.

In the case of `CC(C)Cc1ccc(C(C)C(=O)SC(C)C(=O)NCC(=O)O)cc1` (stereo not shown) [sodium salt], the solubility in water (Solubility in water) was “highly soluble in water”.

For `CC(C)Cc1ccc(C(C)C(=O)SC(C)C(=O)NCC(=O)O)cc1` (stereo not shown) [test compound], the dead/living ([1]; TREATMENT 150 (dose unit not given), oral by gastric probe, suspension in 5% arabic gum) was 0/8, the dead/living ([1]; TREATMENT 300, oral by gastric probe) was 0/8 and the dead/living ([1]; TREATMENT 450, oral by gastric probe) was 0/8. For the same compound, the dead/living ([1]; TREATMENT 600, oral by gastric probe) was 0/8, the dead/living [1, 5] was 0/8 and the LD50 at 240 h ([2]; po) was greater than 900 mg/kg. The mortality at 240 h [2, 5] was 0%, the “reabsorption number and the foeti in the treated rats with respect to the controls” value (female rats) was “no significant difference” and the “weight of the foeti” value (female rats) was “did not revealed whatsoever anomaly”. For the same compound, the “ANTI-INFLAMMATORY ACTIVITY %” value ([3]; 75 mg/kg) was 10%, the “ANTI-INFLAMMATORY ACTIVITY %” value ([3]; 100 mg/kg) was 26% and the “ANTI-INFLAMMATORY ACTIVITY %” value [4] was 26%.
